Reference: ChEMBL document CHEMBL1201862, “PubChem BioAssay data set” (2004)
Active and inactive are the calls of the source.

Columns and labels:
[1] = biological target: Tyrosine-protein kinase receptor TYRO3 (Homo sapiens, UniProt Q06418); type: functional;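 note: TYRO3 value obtained as one member of a kinome-wide profiling panel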
[2] = biological target: Serine/threonine-protein kinase pim-1 (Homo sapiens, UniProt P11309); type: functional
[3] = biological target: Casein kinase I isoform alpha (Homo sapiens, UniProt P48729); type: functional
Sequence of Casein kinase I isoform alpha (P48729 whole entry, canonical isoform): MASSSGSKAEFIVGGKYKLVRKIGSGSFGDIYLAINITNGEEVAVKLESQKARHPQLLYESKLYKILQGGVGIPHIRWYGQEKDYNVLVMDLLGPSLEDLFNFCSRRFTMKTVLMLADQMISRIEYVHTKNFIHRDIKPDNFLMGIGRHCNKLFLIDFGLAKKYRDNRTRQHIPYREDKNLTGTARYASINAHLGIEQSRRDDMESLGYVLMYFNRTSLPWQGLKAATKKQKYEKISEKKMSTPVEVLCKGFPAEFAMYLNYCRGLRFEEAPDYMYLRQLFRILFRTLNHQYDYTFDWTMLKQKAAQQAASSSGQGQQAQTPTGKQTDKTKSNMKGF

[4] = biological target: Mitogen-activated protein kinase 9 (Homo sapiens, UniProt P45984); type: functional;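 note: value from a kinome panel profiling assay, MAPK9 panel entry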
Sequence of Mitogen-activated protein kinase 9 (P45984 whole entry): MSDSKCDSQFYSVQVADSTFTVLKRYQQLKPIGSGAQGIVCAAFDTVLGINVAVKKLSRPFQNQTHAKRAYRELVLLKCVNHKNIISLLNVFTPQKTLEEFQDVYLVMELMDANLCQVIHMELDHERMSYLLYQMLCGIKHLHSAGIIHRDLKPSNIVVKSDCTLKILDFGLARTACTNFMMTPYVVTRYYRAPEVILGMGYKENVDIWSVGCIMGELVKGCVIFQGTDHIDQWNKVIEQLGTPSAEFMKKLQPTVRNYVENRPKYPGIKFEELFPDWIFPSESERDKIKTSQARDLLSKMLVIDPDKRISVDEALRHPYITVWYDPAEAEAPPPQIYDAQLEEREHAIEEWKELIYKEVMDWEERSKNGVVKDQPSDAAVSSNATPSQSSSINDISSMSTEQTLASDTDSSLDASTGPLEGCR

[5] = biological target: Platelet-derived growth factor receptor beta (Homo sapiens, UniProt P09619); type: functional;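 note: value comes from a kinome panel, with PDGFRB tested as one panel member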
Sequence of Platelet-derived growth factor receptor beta (P09619 whole entry): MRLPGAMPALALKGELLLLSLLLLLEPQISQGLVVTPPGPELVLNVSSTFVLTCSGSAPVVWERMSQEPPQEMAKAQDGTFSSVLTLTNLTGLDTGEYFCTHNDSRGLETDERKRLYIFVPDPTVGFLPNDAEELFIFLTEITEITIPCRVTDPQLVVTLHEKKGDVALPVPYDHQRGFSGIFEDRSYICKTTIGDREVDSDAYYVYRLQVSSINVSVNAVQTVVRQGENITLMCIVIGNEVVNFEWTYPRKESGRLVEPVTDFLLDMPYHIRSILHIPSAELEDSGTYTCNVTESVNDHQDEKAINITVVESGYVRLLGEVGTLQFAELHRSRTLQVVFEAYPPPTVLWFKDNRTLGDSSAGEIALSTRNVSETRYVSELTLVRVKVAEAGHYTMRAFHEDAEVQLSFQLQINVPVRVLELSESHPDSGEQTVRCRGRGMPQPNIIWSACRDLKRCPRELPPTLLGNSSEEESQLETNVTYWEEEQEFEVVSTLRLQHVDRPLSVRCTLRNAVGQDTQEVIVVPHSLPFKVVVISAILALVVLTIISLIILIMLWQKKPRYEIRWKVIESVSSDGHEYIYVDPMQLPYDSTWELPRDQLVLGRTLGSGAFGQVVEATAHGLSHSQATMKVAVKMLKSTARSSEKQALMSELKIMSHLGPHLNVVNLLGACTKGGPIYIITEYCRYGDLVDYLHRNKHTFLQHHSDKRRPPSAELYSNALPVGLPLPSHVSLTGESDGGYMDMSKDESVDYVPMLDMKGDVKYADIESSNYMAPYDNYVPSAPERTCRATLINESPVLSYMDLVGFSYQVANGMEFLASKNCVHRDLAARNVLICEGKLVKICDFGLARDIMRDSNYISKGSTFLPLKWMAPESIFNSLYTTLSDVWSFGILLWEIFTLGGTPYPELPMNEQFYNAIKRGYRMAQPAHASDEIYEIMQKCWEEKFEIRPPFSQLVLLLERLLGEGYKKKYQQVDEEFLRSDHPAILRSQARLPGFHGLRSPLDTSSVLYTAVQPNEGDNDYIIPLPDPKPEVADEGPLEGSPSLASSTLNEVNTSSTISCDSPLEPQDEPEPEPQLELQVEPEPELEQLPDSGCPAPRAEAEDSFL

[6] = biological target: Receptor-type tyrosine-protein kinase FLT3 (Homo sapiens, UniProt P36888); type: functional;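 note: FLT3 was tested as one member of a kinome-wide kinase panel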
[7] = biological target: Insulin-like growth factor 1 receptor (Homo sapiens, UniProt P08069); assay: Navigating the Kinome. Panel member name: IGF1R; type: functional
[8] = biological target: Dual specificity tyrosine-phosphorylation-regulated kinase 1B (Homo sapiens, UniProt Q9Y463); assay: Navigating the Kinome. Panel member name: DYRK1B; type: functional
Sequence of Dual specificity tyrosine-phosphorylation-regulated kinase 1B (Q9Y463 whole entry): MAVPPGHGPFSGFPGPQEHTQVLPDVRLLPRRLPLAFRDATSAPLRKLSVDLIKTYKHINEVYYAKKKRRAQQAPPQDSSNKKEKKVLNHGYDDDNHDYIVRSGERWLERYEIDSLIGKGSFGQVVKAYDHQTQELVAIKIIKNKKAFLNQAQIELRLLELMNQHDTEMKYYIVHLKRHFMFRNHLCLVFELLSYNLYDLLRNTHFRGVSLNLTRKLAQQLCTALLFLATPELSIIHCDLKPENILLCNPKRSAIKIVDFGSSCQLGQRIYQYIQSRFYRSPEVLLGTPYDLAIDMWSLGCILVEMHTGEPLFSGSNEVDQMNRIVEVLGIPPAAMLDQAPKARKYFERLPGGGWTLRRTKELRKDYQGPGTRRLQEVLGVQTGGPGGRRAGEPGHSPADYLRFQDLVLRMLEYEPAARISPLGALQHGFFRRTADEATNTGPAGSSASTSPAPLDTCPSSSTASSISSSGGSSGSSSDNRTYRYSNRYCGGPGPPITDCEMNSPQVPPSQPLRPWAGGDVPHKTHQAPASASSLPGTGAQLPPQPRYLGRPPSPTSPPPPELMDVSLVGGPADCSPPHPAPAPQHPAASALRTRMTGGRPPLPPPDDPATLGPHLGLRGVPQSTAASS

[9] = biological target: Platelet-derived growth factor receptor alpha (Homo sapiens, UniProt P16234); assay: Navigating the Kinome. Panel member name: PDGFRA; type: functional
Sequence of Platelet-derived growth factor receptor alpha (P16234 whole entry): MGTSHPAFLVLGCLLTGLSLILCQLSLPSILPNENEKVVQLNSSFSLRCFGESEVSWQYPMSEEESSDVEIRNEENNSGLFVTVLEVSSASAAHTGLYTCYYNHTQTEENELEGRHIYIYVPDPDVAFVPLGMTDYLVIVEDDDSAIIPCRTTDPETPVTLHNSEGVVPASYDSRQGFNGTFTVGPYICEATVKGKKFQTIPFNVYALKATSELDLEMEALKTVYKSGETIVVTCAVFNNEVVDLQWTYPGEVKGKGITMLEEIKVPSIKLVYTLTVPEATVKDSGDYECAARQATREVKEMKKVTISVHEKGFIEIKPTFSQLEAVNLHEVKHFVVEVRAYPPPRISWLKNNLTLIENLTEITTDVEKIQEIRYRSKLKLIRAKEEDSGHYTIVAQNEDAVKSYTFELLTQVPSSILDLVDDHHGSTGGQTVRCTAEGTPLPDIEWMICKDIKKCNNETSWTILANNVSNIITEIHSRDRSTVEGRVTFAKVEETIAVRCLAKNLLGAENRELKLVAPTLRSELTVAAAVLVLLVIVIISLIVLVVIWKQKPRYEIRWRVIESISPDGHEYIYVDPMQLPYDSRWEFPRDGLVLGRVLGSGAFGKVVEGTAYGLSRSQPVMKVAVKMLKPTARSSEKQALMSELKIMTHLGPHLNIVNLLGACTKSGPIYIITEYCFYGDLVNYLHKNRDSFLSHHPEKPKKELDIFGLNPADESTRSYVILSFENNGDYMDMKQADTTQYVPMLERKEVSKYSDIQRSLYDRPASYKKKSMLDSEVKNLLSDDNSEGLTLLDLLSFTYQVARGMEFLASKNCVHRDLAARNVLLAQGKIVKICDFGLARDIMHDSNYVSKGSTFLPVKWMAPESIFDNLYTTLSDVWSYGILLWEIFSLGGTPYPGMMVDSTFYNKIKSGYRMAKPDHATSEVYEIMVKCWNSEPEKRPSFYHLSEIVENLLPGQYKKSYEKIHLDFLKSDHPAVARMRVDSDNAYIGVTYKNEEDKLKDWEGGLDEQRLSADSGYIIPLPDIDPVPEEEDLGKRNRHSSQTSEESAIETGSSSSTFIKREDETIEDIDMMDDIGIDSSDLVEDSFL

[10] = biological target: Cyclin-dependent kinase 7 (Homo sapiens, UniProt P50613); type: functional;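 note: value comes from a kinome-wide kinase profiling panel in which CDK7 is one member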
[11] = biological target: Macrophage colony-stimulating factor 1 receptor (Homo sapiens, UniProt P07333); type: functional;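 note: value comes from the Navigating the Kinome screening panel, CSF1R member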
[12] = biological target: Dual specificity tyrosine-phosphorylation-regulated kinase 1A (Homo sapiens, UniProt Q13627); type: functional;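 note: measured against DYRK1A as one member of a broad kinome profiling panel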
[13] = Fluorescence polarization-based biochemical high throughput dose response assay for activators of the Protein Kinase A-R2B (PKA-R2B) complex. [Related pubchem assays (depositor defined):AID504700, AID504704, AID504796, AID504797]
HEK293 = assay: optical interference in Abeta FP readout, dose response, artefact control for IDE activator project, biochemical, fluorescence polarization (AID 588442); type: functional, cell-based; details: Homo sapiens
SUMO-activating enzyme = SUMO-activating enzyme (Homo sapiens, UniProt Q9UBT2); assay: blockers of UBC9-mediated SUMO conjugation – biochemical, AlphaScreen, SUMOylation inhibitor project, confirmation (AID 2018); type: functional
[14] = biological target: Serine/threonine-protein phosphatase (Homo sapiens, UniProt Q9BPW0); assay: inhibition of protein phosphatase 5 activity – biochemical, fluorescence, dose response (AID 2395)
[15] = biological target: T1, Sentrin-specific protease 6 (Homo sapiens, UniProt Q9GZR1); type: functional;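 note: Luminescence-based dose-response confirmatory assay of SENP6 inhibition, following up an ultra-high-throughput screen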
T1 sequence (Q9GZR1 whole entry): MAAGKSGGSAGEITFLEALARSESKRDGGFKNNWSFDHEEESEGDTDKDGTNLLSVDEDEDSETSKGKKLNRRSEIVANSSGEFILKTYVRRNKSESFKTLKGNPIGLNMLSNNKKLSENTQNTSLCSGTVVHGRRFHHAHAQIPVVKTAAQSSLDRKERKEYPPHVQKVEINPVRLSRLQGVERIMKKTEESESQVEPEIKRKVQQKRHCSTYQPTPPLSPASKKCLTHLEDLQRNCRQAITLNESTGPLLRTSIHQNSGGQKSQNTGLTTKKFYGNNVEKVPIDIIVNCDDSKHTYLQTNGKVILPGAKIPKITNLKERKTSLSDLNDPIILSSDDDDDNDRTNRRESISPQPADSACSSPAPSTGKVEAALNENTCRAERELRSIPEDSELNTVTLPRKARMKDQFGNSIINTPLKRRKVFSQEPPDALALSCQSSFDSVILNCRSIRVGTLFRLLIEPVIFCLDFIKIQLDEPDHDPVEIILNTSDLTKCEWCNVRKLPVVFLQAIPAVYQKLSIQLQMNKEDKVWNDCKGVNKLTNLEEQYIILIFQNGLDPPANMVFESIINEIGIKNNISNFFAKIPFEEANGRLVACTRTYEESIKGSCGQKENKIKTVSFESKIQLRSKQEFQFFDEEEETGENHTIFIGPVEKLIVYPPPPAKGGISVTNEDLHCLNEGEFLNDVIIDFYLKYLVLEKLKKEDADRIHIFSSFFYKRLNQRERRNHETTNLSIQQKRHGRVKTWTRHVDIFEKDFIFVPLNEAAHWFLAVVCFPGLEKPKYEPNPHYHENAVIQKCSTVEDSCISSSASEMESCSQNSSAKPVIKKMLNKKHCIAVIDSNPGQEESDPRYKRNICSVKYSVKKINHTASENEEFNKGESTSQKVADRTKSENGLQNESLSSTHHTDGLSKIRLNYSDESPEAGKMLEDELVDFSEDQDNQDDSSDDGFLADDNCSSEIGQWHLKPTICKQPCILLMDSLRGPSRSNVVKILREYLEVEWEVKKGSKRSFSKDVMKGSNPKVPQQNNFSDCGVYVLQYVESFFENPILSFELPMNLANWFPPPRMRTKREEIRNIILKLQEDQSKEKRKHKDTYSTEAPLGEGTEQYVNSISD

[16] = biological target: T2, Sentrin-specific protease 8 (Homo sapiens, UniProt Q96LD8); assay: inhibition of human SENP8 cleavage activity – biochemical, luminescence, SAR follow-up (AID 504501); type: functional
T2 sequence (Q96LD8 whole entry): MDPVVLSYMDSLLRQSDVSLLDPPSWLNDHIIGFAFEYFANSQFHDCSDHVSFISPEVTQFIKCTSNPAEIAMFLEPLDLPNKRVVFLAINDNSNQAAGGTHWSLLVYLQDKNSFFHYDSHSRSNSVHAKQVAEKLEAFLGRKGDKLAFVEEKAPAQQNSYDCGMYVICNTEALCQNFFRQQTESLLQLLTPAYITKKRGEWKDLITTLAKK

Sequence of Serine/threonine-protein kinase pim-1 (P11309 whole entry, canonical isoform): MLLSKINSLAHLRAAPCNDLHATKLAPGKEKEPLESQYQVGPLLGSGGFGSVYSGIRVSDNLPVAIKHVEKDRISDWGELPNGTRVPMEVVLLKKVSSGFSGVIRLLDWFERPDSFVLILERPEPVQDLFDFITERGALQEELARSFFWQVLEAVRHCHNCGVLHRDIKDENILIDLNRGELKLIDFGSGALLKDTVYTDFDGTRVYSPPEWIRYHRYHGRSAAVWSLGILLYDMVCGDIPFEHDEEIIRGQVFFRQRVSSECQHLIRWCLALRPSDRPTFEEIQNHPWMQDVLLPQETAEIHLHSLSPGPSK
Sequence of Tyrosine-protein kinase receptor TYRO3 (Q06418 whole entry): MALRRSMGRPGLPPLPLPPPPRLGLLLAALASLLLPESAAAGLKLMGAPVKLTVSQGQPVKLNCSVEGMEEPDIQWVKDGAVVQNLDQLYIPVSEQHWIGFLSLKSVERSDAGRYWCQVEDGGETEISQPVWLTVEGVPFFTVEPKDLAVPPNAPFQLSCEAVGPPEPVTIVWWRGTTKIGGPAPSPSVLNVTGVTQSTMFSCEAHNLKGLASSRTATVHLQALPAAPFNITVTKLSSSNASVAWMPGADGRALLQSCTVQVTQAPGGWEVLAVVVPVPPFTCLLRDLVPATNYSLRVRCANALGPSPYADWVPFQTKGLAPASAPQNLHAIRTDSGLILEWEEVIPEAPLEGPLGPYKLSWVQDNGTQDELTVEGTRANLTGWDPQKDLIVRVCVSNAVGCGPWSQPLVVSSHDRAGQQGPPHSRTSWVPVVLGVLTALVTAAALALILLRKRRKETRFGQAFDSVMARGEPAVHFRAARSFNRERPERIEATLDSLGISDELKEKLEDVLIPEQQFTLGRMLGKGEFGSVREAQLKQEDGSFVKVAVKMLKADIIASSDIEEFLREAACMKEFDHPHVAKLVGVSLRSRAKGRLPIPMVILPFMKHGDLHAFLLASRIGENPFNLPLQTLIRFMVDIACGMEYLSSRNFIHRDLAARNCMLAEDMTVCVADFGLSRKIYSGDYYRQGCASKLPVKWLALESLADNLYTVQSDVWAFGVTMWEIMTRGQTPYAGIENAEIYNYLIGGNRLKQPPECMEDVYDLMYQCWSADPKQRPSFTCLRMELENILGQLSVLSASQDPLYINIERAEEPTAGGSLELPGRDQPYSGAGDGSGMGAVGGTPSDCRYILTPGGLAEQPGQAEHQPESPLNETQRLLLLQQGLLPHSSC

In the case of O=C(Cc1cccs1)Nc1nc2ccccc2s1, the Ki [1] is reported as 398 nM (active), the Ki [2] is reported as 794 nM (active) and the Ki [3] is reported as 631 nM (active). For the same compound, the Ki [4] was 3160 nM (active), the Ki [5] was > 2000 nM (inactive) and the Ki [6] was > 3160 nM (inactive). The Ki [7] was > 2510 nM (inactive), the Ki [8] was 794 nM (active) and the Ki [9] was 1580 nM (active). The Ki [10] was 1000 nM (active), the Ki [11] was > 2510 nM (inactive) and the Ki [12] was 501 nM (active).
In the case of O=S(=O)(O)c1cccc2c(N=Nc3ccc(O)c4ncccc34)cccc12, the EC50 [13] is reported as > 114000 nM (inactive) and the EC50 (HEK293) is reported as 5530 nM (active).
For O=C(NNc1cc(N2CCCC2)nc(N2CCCC2)n1)c1ccc([N+](=O)[O-])cc1, the IC50 (SUMO-activating enzyme) was 1820 nM (active), the IC50 [14] was > 67000 nM (not active) and the IC50 [15] was 1810 nM (active). For the same compound, the IC50 [16] was 3370 nM (active).
